Values after ≈ are worked out from the molar mass of the structure shown.
What was measured:
[1] = system: Acinetobacter sp.51-156; experiment: Antibacterial spectrum (MIC), agar dilution; type: cell-based; details: SP.51156, read-out: MIC
Method: (§1) In vitro activity was determined by minimum inhibitory concentration in a microorganism spectum by the agar dilution method in Mueller Hinton agar.

[2] = system: C.freundii 43; experiment: Antibacterial spectrum (MIC), agar dilution; type: cell-based; details: Citrobacter freundii, read-out: MIC
Method: as §1

[3] = system: C.freundii 902; experiment: Antibacterial spectrum (MIC), agar dilution; type: cell-based; details: Citrobacter freundii, read-out: MIC
Method: as §1

[4] = system: E.cloacae 908R; experiment: Antibacterial spectrum (MIC), agar dilution; type: cell-based; details: Enterobacter cloacae, read-out: MIC
Method: as §1

[5] = system: E.cloacae 908SSi; experiment: Antibacterial spectrum (MIC), agar dilution; type: cell-based; details: Enterobacter cloacae, read-out: MIC
Method: as §1

[6] = system: E.coli 25922; experiment: Antibacterial spectrum (MIC), agar dilution; type: cell-based; details: Escherichia coli, read-out: MIC
Method: as §1

[7] = system: E.faecalis 6; experiment: Antibacterial spectrum (MIC), agar dilution; type: cell-based; details: Enterococcus faecalis, read-out: MIC
Method: as §1

[8] = system: H.influenzae 1; experiment: Antibacterial spectrum (MIC), agar dilution; type: cell-based; details: Haemophilus influenzae, read-out: MIC
Method: as §1

[9] = system: K.pneumoniae 418; experiment: Antibacterial spectrum (MIC), agar dilution; type: cell-based; details: Klebsiella pneumoniae, read-out: MIC
Method: as §1

[10] = system: M.catarrhalis RA21; experiment: Antibacterial spectrum (MIC), agar dilution; type: cell-based; details: Moraxella catarrhalis, read-out: MIC
Method: as §1

[11] = system: M.morganii 6H-137; experiment: Antibacterial spectrum (MIC), agar dilution; type: cell-based; details: Morganella morganii, 6H137, read-out: MIC
Method: as §1

[12] = system: N.meningitidis 69480; experiment: Antibacterial spectrum (MIC), agar dilution; type: cell-based; details: Neisseria meningitidis, read-out: MIC
Method: as §1

[13] = system: P.aeruginosa 27853; experiment: Antibacterial spectrum (MIC), agar dilution; type: cell-based; details: Pseudomonas aeruginosa, read-out: MIC
Method: as §1

[14] = system: P.mirabilis 2117; experiment: Antibacterial spectrum (MIC), agar dilution; type: cell-based; details: Proteus mirabilis, read-out: MIC
Method: as §1

[15] = system: P.vulgaris 1028; experiment: Antibacterial spectrum (MIC), agar dilution; type: cell-based; details: Proteus vulgaris, read-out: MIC
Method: as §1

[16] = system: S.agalactiae QK44; experiment: Antibacterial spectrum (MIC), agar dilution; type: cell-based; details: Streptococcus agalactiae, read-out: MIC
Method: as §1

[17] = system: S.aureus 6538; experiment: Antibacterial spectrum (MIC), agar dilution; type: cell-based; details: Staphylococcus aureus, read-out: MIC
Method: as §1

[18] = system: S.aureus 734 MRSA; experiment: Antibacterial spectrum (MIC), agar dilution; type: cell-based; details: Staphylococcus aureus, read-out: MIC
Method: as §1

[19] = system: S.marcescens 69438; experiment: Antibacterial spectrum (MIC), agar dilution; type: cell-based; details: Serratia marcescens, read-out: MIC
Method: as §1

[20] = system: S.pneumoniae Q19; experiment: Antibacterial spectrum (MIC), agar dilution; type: cell-based; details: Streptococcus pneumoniae, read-out: MIC
Method: as §1

[21] = system: S.pyogenes B15; experiment: Antibacterial spectrum (MIC), agar dilution; type: cell-based; details: Streptococcus pyogenes, read-out: MIC
Method: as §1

[22] = system: S.viridans group 016; experiment: Antibacterial spectrum (MIC), agar dilution; type: cell-based; details: Streptococcus viridans, read-out: MIC
Method: as §1

[23] = system: X.maltophilia 1AC739; experiment: Antibacterial spectrum (MIC), agar dilution; type: cell-based; details: Stenotrophomonas maltophilia, read-out: MIC
Method: as §1

[24] = system: S.aureus MSSA; experiment: In vitro activity against selected species (MIC50, MIC90, range); type: cell-based; details: Staphylococcus aureus, medium MHB (Mueller Hinton Broth)
[25] = system: S.pneumoniae PEN-R; experiment: as above; type: cell-based; details: Streptococcus pneumoniae; for MIC: MIC range
[26] = system: S.viridans group; experiment: as above; type: cell-based; details: Streptococcus viridans
[27] = system: E.faecalis; experiment: as above; type: cell-based; details: Enterococcus faecalis, medium MHA
Method: as §1

[28] = system: S.aureus MRSA; experiment: as above; type: cell-based; details: Staphylococcus aureus, medium MHA (Mueller Hinton Agar) +NaCl
Method: as §1

[29] = system: E.faecium; experiment: In vitro activity against selected species (MIC50, range); type: cell-based; details: Enterococcus faecium, medium MHA
Method: as §1

[30] = system: M.catarrhalis; experiment: In vitro activity against selected species (MIC50, MIC90, range); type: cell-based; details: Moraxella catarrhalis, medium IsoB
[31] = system: Escherichia coli 25922; experiment: Efficacy against systemic infections (septicemia) in mice; type: in vivo; details: 96 h, Escherichia coli 25922, po (orally) 1 and 3 h after challenge, survival day 4
Method: Septicemia was induced in outbred Swiss albino mice (Jbm MoRo [specific pathogen free]; weight 16 to 20 g, Biomedical Research Laboratories, Füllinsdorf, Switzerland). Mice were infected by intraperitoneal injection of diluted overnight cultures of the test organisms. Bacterial challenge doses were 4-10 times the number of organisms required to kill 50% of untreated animals within 48 h. The test compounds were administered p.o. or s.c. 1 and 3 h after the bacterial challenge. To treat the infection with Pseudomonas aeruginosa BA an additional dose was given 5 h after challenge. Control and treatment groups at each dose were composed of five mice each. The 50% effective dose (ED50, in milligrams per kilogram) was calculated by probit analysis as described by Finney (Finney, D.J. 1978, Statistical method in biological assay, 3rd ed. Charles Griffin & Co., Ltd., London), from the survival rates on day 4 after infection.

[32] = system: E.faecalis; experiment: In vitro activity against selected species (MIC50, MIC90, range); type: cell-based; details: Enterococcus faecalis, medium IsoB
[33] = system: L.monocytogenes BK23; experiment: Antibacterial spectrum (MIC), agar dilution; type: cell-based; details: Listeria monocytogenes, read-out: MIC
Method: as §1

[34] = medium IsoB (Isosensitest Broth)

With `CC(C)(C)N1CC/C(=C\C2=C(C(=O)O)N3C(=O)[C@@H](NC(=O)/C(=N\O)c4csc(N)n4)[C@H]3SC2)C1=O` [J] the MIC [1] was > 32 µg/mL, the MIC [2] was 4 µg/mL (≈ 7.68 µM) and the MIC [3] was 0.5 µg/mL (≈ 0.96 µM). The MIC [4] was 8 µg/mL (≈ 15.4 µM), the MIC [5] was 2 µg/mL (≈ 3.84 µM) and the MIC [6] was 0.5 µg/mL (≈ 0.96 µM). For the same compound, the MIC [7] was 2 µg/mL (≈ 3.84 µM), the MIC [8] was 0.25 µg/mL (≈ 0.48 µM) and the MIC [9] was 1 µg/mL (≈ 1.92 µM). The MIC [10] was 16 µg/mL (≈ 30.7 µM), the MIC [11] was 0.25 µg/mL (≈ 0.48 µM) and the MIC [12] was 0.12 µg/mL (≈ 0.231 µM). For the same compound, the MIC [13] was > 32 µg/mL, the MIC [14] was 0.12 µg/mL (≈ 0.231 µM) and the MIC [15] was 0.5 µg/mL (≈ 0.96 µM). It also gave an MIC [16] of 0.25 µg/mL (≈ 0.48 µM), an MIC [17] of 1 µg/mL (≈ 1.92 µM) and an MIC [18] of 16 µg/mL (≈ 30.7 µM). For the same compound, the MIC [19] was 1 µg/mL (≈ 1.92 µM), the MIC [20] was 0.12 µg/mL (≈ 0.231 µM) and the MIC [21] was < 0.06 µg/mL. For the same compound, the MIC [22] was 1 µg/mL (≈ 1.92 µM), the MIC [23] was > 32 µg/mL and the MIC ([24]; MIC range) was 0.5 to 2 µg/mL (≈ 0.96 to 3.84 µM). The MIC50 [24] was 1 µg/mL (≈ 1.92 µM), the MIC90 [24] was 2 µg/mL (≈ 3.84 µM) and the MIC [25, 34] was 0.12 to 0.5 µg/mL (≈ 0.231 to 0.96 µM). For the same compound, the MIC ([25]; medium IsoB + 20% serum) was 0.1 to 1 µg/mL, the MIC50 [25, 34] was 0.25 µg/mL (≈ 0.48 µM) and the MIC90 [25, 34] was 0.5 µg/mL (≈ 0.96 µM). It also gave an MIC50 ([25]; medium IsoB + 20% serum) of 0.5 µg/mL, an MIC50 [26] of 2 µg/mL (≈ 3.84 µM) and an MIC90 [26] of 4 µg/mL (≈ 7.68 µM). It also gave an MIC ([26]; MIC range) of 0.12 to 8 µg/mL (≈ 0.231 to 15.4 µM), an MIC ([27]; MIC range) of 1 to 8 µg/mL (≈ 1.92 to 15.4 µM) and an MIC50 [27] of 2 µg/mL (≈ 3.84 µM). For the same compound, the MIC90 [27] was 4 µg/mL (≈ 7.68 µM), the MIC ([28]; MIC range) was 16 to 32 µg/mL (≈ 30.7 to 61.5 µM) and the MIC50 [28] was 32 µg/mL (≈ 61.5 µM). It also gave an MIC90 [28] of 32 µg/mL (≈ 61.5 µM), an MIC ([29]; MIC range) of 2 to 32 µg/mL (≈ 3.84 to 61.5 µM) and an MIC50 [29] of 4 µg/mL (≈ 7.68 µM). For the same compound, the MIC ([30]; MIC range) was 2 to 32 µg/mL (≈ 3.84 to 61.5 µM), the MIC50 [30] was 8 µg/mL (≈ 15.4 µM) and the MIC90 [30] was 16 µg/mL (≈ 30.7 µM). For the same compound, the ED50 [31] was > 2 mg/kg, the MIC ([32]; MIC range) was 0.5 to 4 µg/mL (≈ 0.96 to 7.68 µM) and the MIC50 [32] was 2 µg/mL (≈ 3.84 µM). For the same compound, the MIC90 [32] was 2 µg/mL (≈ 3.84 µM).
With `C=CCN1CC/C(=C\C2=C(C(=O)O)N3C(=O)[C@@H](NC(=O)/C(=N\O)c4csc(N)n4)[C@H]3SC2)C1=O` [L, [6R-[3(E),6α,7β(Z)]]-3-[[1-Allyl-2-oxo-3-pyrrolidinylidene]methyl]-7-[[(2-amino-4-thiazolyl)(hydroxyimino)acetyl]amino]-8-oxo-5-thia-1-azabicyclo[4.2.0]oct-2-ene-2-carboxylic acid] the MIC [1] was 16 µg/mL (≈ 31.7 µM), the MIC [2] was 4 µg/mL (≈ 7.93 µM) and the MIC [3] was ≤ 0.06 µg/mL. For the same compound, the MIC [4] was 16 µg/mL (≈ 31.7 µM), the MIC [5] was 0.25 µg/mL (≈ 0.495 µM) and the MIC [6] was ≤ 0.06 µg/mL. It also gave an MIC [7] of 2 µg/mL (≈ 3.96 µM), an MIC [8] of 0.5 µg/mL (≈ 0.991 µM) and an MIC [9] of 0.12 µg/mL (≈ 0.238 µM). For the same compound, the MIC [33] was 4 µg/mL (≈ 7.93 µM), the MIC [10] was 8 µg/mL (≈ 15.9 µM) and the MIC [11] was ≤ 0.06 µg/mL. For the same compound, the MIC [12] was ≤ 0.06 µg/mL, the MIC [13] was 16 µg/mL (≈ 31.7 µM) and the MIC [14] was ≤ 0.06 µg/mL. For the same compound, the MIC [15] was 2 µg/mL (≈ 3.96 µM), the MIC [16] was 0.25 µg/mL (≈ 0.495 µM) and the MIC [17] was 1 µg/mL (≈ 1.98 µM). The MIC [18] was 16 µg/mL (≈ 31.7 µM), the MIC [19] was 1 µg/mL (≈ 1.98 µM) and the MIC [20] was ≤ 0.06 µg/mL. The MIC [21] was ≤ 0.06 µg/mL, the MIC [22] was 1 µg/mL (≈ 1.98 µM) and the MIC [23] was > 32 µg/mL.
`N#CCN1CC/C(=C\C2=C(C(=O)O)N3C(=O)[C@@H](NC(=O)/C(=N\O)c4csc(N)n4)[C@H]3SC2)C1=O` [M, [6R-[3(E),6α,7β(Z)]]-7-[[(2-Amino-4-thiazolyl)(hydroxyimino)acetyl]-amino]-3-[[1-cyanomethyl-2-oxo-3-pyrrolidinylidene]methyl]-8-oxo-5-thia-1-azabicyclo[4.2.0]oct-2-ene-2-carboxylic acid] gave an MIC [1] of 8 µg/mL (≈ 15.9 µM), an MIC [2] of 8 µg/mL (≈ 15.9 µM) and an MIC [3] of 0.25 µg/mL (≈ 0.497 µM). For the same compound, the MIC [4] was 16 µg/mL (≈ 31.8 µM), the MIC [5] was 1 µg/mL (≈ 1.99 µM) and the MIC [6] was ≤ 0.06 µg/mL. For the same compound, the MIC [7] was 1 µg/mL (≈ 1.99 µM), the MIC [8] was 0.5 µg/mL (≈ 0.993 µM) and the MIC [9] was 0.12 µg/mL (≈ 0.238 µM). For the same compound, the MIC [33] was 4 µg/mL (≈ 7.94 µM), the MIC [10] was 8 µg/mL (≈ 15.9 µM) and the MIC [11] was ≤ 0.06 µg/mL. For the same compound, the MIC [12] was ≤ 0.06 µg/mL, the MIC [13] was 8 µg/mL (≈ 15.9 µM) and the MIC [14] was ≤ 0.06 µg/mL. The MIC [15] was 8 µg/mL (≈ 15.9 µM), the MIC [16] was 0.25 µg/mL (≈ 0.497 µM) and the MIC [17] was 1 µg/mL (≈ 1.99 µM). For the same compound, the MIC [18] was 4 µg/mL (≈ 7.94 µM), the MIC [19] was 4 µg/mL (≈ 7.94 µM) and the MIC [20] was ≤ 0.06 µg/mL. For the same compound, the MIC [21] was ≤ 0.06 µg/mL, the MIC [22] was 1 µg/mL (≈ 1.99 µM) and the MIC [23] was > 32 µg/mL.

Reference: patent EP0620225B1, “Cephalosporin derivatives” (Basilea Pharmaceutica AG, priority 1993, dated 1994)
